Reference: EP0610943A1, “Pyridinium derivatives useful as PAF antagonists” (J. URIACH & CIA. S.A., priority 1993, dated 1994)

Tests used:
[1] = test system: Platelet aggregation induced by PAF; assay: Inhibition of platelet aggregation induced by PAF (Born nephelometric technique, platelet-rich plasma); format: cell-based, male New Zealand rabbits; settings: rabbit platelet-rich plasma, platelet count 3x10⁵/mm³; PAF (C₁₈) 15 nM; read-out: IC₅₀
Experimental: Inhibition of platelet aggregation induced by PAF
Platelet-rich plasma (PRP) was prepared by centrifuging the blood at 250xg for 10 min at 4°C and then it was diluted with platelet-poor plasma (PPP) obtained by further centrifuging at 3000xg for 10 min. The platelet count was adjusted to 3x10⁵/mm³. […] The activities of the inhibitors were expressed as the IC₅₀ value, that is to say the concentration of the drug needed to inhibit platelet aggregation by 50%.

PAF-induced hypotension = assay: Inhibition of the hypotensive effect induced by PAF in normotensive rats; format: in vivo, Male Sprague Dawley rats; settings: i.v. through the femoral vein 3 min before PAF injection (0.5 mcg/kg, i.v.); anaesthetized rats
Experimental: Inhibition of the hypotensive effect induced by PAF in normotensive rats.
Male Sprague Dawley rats (b.w. 180-220 g) anaesthetized with sodium pentobarbital (50 mg/kg, i.p. 1mL/100 g) were used. In order to measure the arterial pressure, a polyethylene catheter was introduced into the carotid artery. The arterial pressure was recorded with the help of a transducer coupled to a R611 Beckman polygraph. The test compounds were administered through the femoral vein 3 min before PAF injection (0.5 mcg/kg, i.v.). Control animals received only the vehicle. […]

[2] = test system: ear oedema induced by arachidonic acid; assay: Rodent ear oedema induced by arachidonic acid; format: in vivo, Swiss, male mice; settings: topical in acetone 30 min before irritant; 10% arachidonic acid, 2 mg/ear; read at 1 h; mouse ear
Experimental: (§1) Rodent ear oedema induced by application of several irritant agents
(§2) Groups of 8-10 Swiss, male mice, 6-8 weeks old, were used in the experiments. Animals had free access to food and water. Irritant dermatitis was elicited by painting both faces of the left ear of the mouse with 20 µL (10 µL each face) of the inflammatory agents. Concentrations (w/v) of the irritants were: 10% arachidonic acid and 0.01% TPA (12-O-tetradecanoylphorbol 13-acetate), both dissolved in acetone. Total applied doses were 2 and 0.002 mg/ear, respectively. Treatment was effected by application of a total of 20 µL of the test compound dissolved in acetone to both faces of the left ear of the mouse 30 min before the application of the irritant agent. Control animals received only the vehicle. At 1 h (arachidonic acid) and 6 h (TPA) after administration of the irritant, animals were killed by cervical dislocation. An 8 mm diameter punch biopsy was performed on each ear, the right (untreated) ear being the control for each animal. The swelling induced by the irritant was quantified as the percentage increase in the weight of the left ear biopsy over that of the right ear biopsy.

[3] = test system: ear oedema induced by TPA (12-O-tetradecanoylphorbol 13-acetate); assay: Rodent ear oedema induced by TPA; format: in vivo, Swiss, male mice; settings: topical in acetone 30 min before irritant; 0.01% TPA, 0.002 mg/ear; read at 6 h; mouse ear
Experimental: as §1
as §2, with “This test was performed according to the method described by Young et al. (Pharmacological Methods in the Control of Inflammation., ed. Chang, J.Y. & Lewis, A.J. pp 215-231. New York: Alan R. Liss, 1989). Groups” for “Groups”, “biopsy. Percentage inhibition of oedema was calculated according to the following formula: [formula] Activity of the inhibitors was expressed as the ID₅₀ value, i.e. the amount of compound by weight of animal (dose) required to inhibit the increase in weight by 50%, with respect to control animals.” for “biopsy.”

IC50 [1]	Compound	ID₅₀ (PAF-induced hypotension)	ID₅₀ Arachidonic acid [2]	ID₅₀ TPA [3]
4.2 nM	5-Bromo-3-[N-(2-ethoxycarbonylamino)ethyl-N-phenyl]carbamoyl-1-propylpyridinium chloride [Compound 2]	0.039 mg/kg		
16 nM	5-Bromo-3-[N-[2-(2-iodoethoxy)carbonylamino]ethyl-N-phenyl]carbamoyl-1-propylpyridinium chloride [Compound 4]			
10 nM	5-Bromo-3-[N-[2-(2-iodoethoxy)carbonylamino]ethyl-N-phenyl]carbamoyl₋1-propylpyridinium iodide [Compound 3]		0.3-1 mg/ear	0.76 mg/ear
3.8 nM	5-Bromo-3-[N-[2-(4-fluorobenzyloxy)carbonylamino]ethyl-N-phenyl]carbamoyl-1-propylpyridinium iodide [Compound 9]	0.079 mg/kg	≈1 mg/ear	0.3-1 mg/ear
18 nM	CCC[n+]1cc(Br)cc(C(=O)N(CCNC(=O)OCC)c2ccccc2)c1.[I-] [Compound 1, 5-Bromo-3-[N-(2₋ethoxycarbonylamino)ethyl-N-phenyl]carbamoyl-1-propylpyridinium iodide]	0.046 mg/kg	0.31 mg/ear	0.31 mg/ear
4.2 nM	CCC[n+]1cc(Br)cc(C(=O)N(CCNC(=O)OCC(F)(F)C(F)(F)F)c2ccccc2)c1.[I-] [Compound 8, 5-Bromo-3-[N-[2-(2,2,3,3,3-pentafluoropropoxy)carbonylamino]ethyl-N-phenyl]carbamoyl-1-propylpyridinium iodide]		≈1 mg/ear	0.3-1 mg/ear
4.5 nM	CCC[n+]1cc(Br)cc(C(=O)N(CCNC(=O)c2ccc(C(F)(F)F)cc2)c2ccccc2)c1.[I-] [Compound 10]		≈1 mg/ear	0.3-1 mg/ear
23 nM	CCC[n+]1cc(Br)cc(C(=O)N(CCNC(=O)c2ccc(C(F)(F)F)cc2)c2ccccc2)c1.[Cl-] [Compound 11, 5-Bromo-3-[N-[2-[(4-trifluoromethyl)phenyl]carbonylaminolethyl-N-phenyl]carbamoyl-1-propylpyridinium chloride]			
	CCC[n+]1cc(Br)cc(C(=O)N(CCNC(=O)c2ccc(C(F)(F)F)cc2)c2ccccc2)c1.[Cl-] [Compound 11]	0.022 mg/kg		
52 nM	Cl.O=C(Cc1ccc(OCc2ccc3ccccc3n2)cc1)NCCN(C(=O)c1cncc(Br)c1)c1ccccc1 [Compound 13, 5-Bromo-3-[N-[2-[p-(2-quinolylmethoxy)phenyl]acetylamino]ethyl-N-phenyl]carbamoylpyridinium chloride]	0.0065 mg/kg	>0.3 mg/ear	>0.1 mg/ear
	Cl.O=C(NCCN(C(=O)c1cncc(Br)c1)c1ccccc1)c1cccc(OCc2ccc3ccccc3n2)c1 [Compound 15, 5-Bromo-3-[N-[2-[3-(2-quinolylmethoxy)phenyl]carbonylamino]ethyl-N-phenyl]carbamoylpyridinium chloride]			≦0.1 mg/ear
	Cl.O=C(NCCN(C(=O)c1cncc(Br)c1)c1ccccc1)c1ccc(OCc2ccc3ccccc3n2)cc1 [Compound 17, 5-Bromo-3-[N-[2-[p-(2-quinolylmethoxy)phenyl]carbonylamino]ethyl-N-phenyl]carbamoylpyridinium chloride]			<0.1 mg/ear

Compound	IC50 [1]	ID₅₀ (PAF-induced hypotension)	ID₅₀ Arachidonic acid [2]	ID₅₀ TPA [3]
CCC[n+]1cc(Br)cc(C(=O)N(CCN2CCOC2=O)c2ccccc2)c1.[I-] [Compound 5, 5-Bromo-3-[N-[2-(2-oxo-1,3-oxazolidin-3-yl)ethyl-N-phenyl]carbamoyl]-1-propylpyridinium iodide]	36 nM	0.16 mg/kg	≧1 mg/ear	0.68 mg/ear
CCC[n+]1cc(Br)cc(C(=O)N(CCOC(=O)NCCI)c2ccccc2)c1.[I-] [Compound 7]	2.1 nM	<0.025 mg/kg	0.50 mg/ear	0.20 mg/ear
